Data taken from patent US20210254056A1, “IDENTIFICATION AND TARGETED MODULATION OF GENE SIGNALING NETWORKS” (CAMP4 THERAPEUTICS CORPORATION, priority 2017, published 2021).
Where a name gives a salt, the structure may show the parent alone.

Tested on: hepatocytes
Assay: RNA-seq of hepatocytes treated with Phase III failure compounds
Details: for significant modulation of expression of disease genes: q≤0.05, genes in the value or listed in the block; for significant changes in gene expression: RNA-seq of Table 36, FPKM≥0.5, log 2(fold-change)≥1, q-value≤0.05; for significant modulation of expression of any of the genes analyzed: p≤0.05
Description: RNA-seq was performed to determine the effects of the compounds on hepatocytes.
Significance was determined by the criteria of FPKM≥0.5, a log 2(fold-change)≥1, and a […].

SMILES: COc1cc2nccc(Oc3ccc(NC(=O)Nc4cc(C)on4)c(Cl)c3)c2cc1OC [Tivozanib]
- RNA-seq results, CYP2B6 expression: 0.16
- RNA-seq results, CYP2C19 expression: −1.36
- RNA-seq results, CYP2D6 expression: 0.21
- RNA-seq results, CYP3A4 expression: 0.50
- RNA-seq results, CYP7B1 expression: −1.02
- RNA-seq results, CYP39A1 expression: 0.94
- RNA-seq results: CYP2B6 expression: 0.24
- RNA-seq results: CYP2C19 expression: 0.27
- RNA-seq results: CYP2D6 expression: −0.3
- RNA-seq results: CYP3A4 expression: 0.18
- RNA-seq results: CYP7B1 expression: −0.17
- RNA-seq results: CYP39A1 expression: 0.06
- significant modulation of expression of disease genes (RNA-seq, hepatocytes): significantly (q≤0.05) modulate expression
- effect on disease gene expression (RNA-seq, hepatocytes): effect on expression of too many disease genes
- RNA-seq results: A1BG expression (gene A1BG, hepatocytes): 0.51
- RNA-seq results: AGTR1 expression (gene AGTR1, hepatocytes): −0.47
- RNA-seq results: AGXT expression (gene AGXT, hepatocytes): 0.04
- RNA-seq results: AHI1 expression (gene AHI1, hepatocytes): 0.24
- RNA-seq results: AMPD3 expression (gene AMPD3, hepatocytes): −0.18
- RNA-seq results: AMT expression (gene AMT, hepatocytes): 0.50
- RNA-seq results: ANGPTL3 expression (gene ANGPTL3, hepatocytes): −1.56
- RNA-seq results: ANKS4B expression (gene ANKS4B, hepatocytes): −0.68
- RNA-seq results: ANKS6 expression (gene ANKS6, hepatocytes): −0.21
- RNA-seq results: ANPEP expression (gene ANPEP, hepatocytes): −1.04
- RNA-seq results: AOC2 expression (gene AOC2, hepatocytes): −0.20
- RNA-seq results: APOA2 expression (gene APOA2, hepatocytes): 0.31
- RNA-seq results: APOA5 expression (gene APOA5, hepatocytes): −0.09
- RNA-seq results: APOB expression (gene APOB, hepatocytes): −0.40
- RNA-seq results: COG5 expression (gene COG5, hepatocytes): −0.02
- RNA-seq results: COG6 expression (gene COG6, hepatocytes): −0.09
- RNA-seq results: COL1A1 expression (gene COL1A1, hepatocytes): −0.35
- RNA-seq results: COX6A1 expression (gene COX6A1, hepatocytes): −0.05
- RNA-seq results: CP expression (gene CP, hepatocytes): 0.36
- RNA-seq results: CPS1 expression (gene CPS1, hepatocytes): 0.2
- RNA-seq results: CPT1A expression (gene CPT1A, hepatocytes): 0.08
- RNA-seq results: CPT2 expression (gene CPT2, hepatocytes): 0.07
- RNA-seq results: CROT expression (gene CROT, hepatocytes): −0.02
- RNA-seq results: CSPP1 expression (gene CSPP1, hepatocytes): 0.35
- RNA-seq results: CTC1 expression (gene CTC1, hepatocytes): −0.04
- RNA-seq results: CTDSP2 expression (gene CTDSP2, hepatocytes): 0
- RNA-seq results: CTH expression (gene CTH, hepatocytes): 0.11
- RNA-seq results: CTNS expression (gene CTNS, hepatocytes): −0.16
- RNA-seq results: CTSF expression (gene CTSF, hepatocytes): −0.1
- RNA-seq results: CTSK expression (gene CTSK, hepatocytes): 0.32
- RNA-seq results: CYB5A expression (gene CYB5A, hepatocytes): 0.09
- RNA-seq results: CYB5R3 expression (gene CYB5R3, hepatocytes): −0.25
- RNA-seq results: CYP27A1 expression (gene CYP27A1, hepatocytes): 0.02
- RNA-seq results: DAO expression (gene DAO, hepatocytes): 0.02
- RNA-seq results: DBT expression (gene DBT, hepatocytes): 0.18
- RNA-seq results: DCDC2 expression (gene DCDC2, hepatocytes): 0.25
- RNA-seq results: DCXR expression (gene DCXR, hepatocytes): −0.35
- RNA-seq results: FABP1 expression (gene FABP1, hepatocytes): 0.25
- RNA-seq results: FADD expression (gene FADD, hepatocytes): −0.32
- RNA-seq results: FAM111A expression (gene FAM111A, hepatocytes): 0.18
- RNA-seq results: FAM111B expression (gene FAM111B, hepatocytes): 0.01
- RNA-seq results: FAN1 expression (gene FAN1, hepatocytes): 0.06
- RNA-seq results: FARS2 expression (gene FARS2, hepatocytes): −0.06
- RNA-seq results: FASLG expression (gene FASLG, hepatocytes): −0.16
- RNA-seq results: FGA expression (gene FGA, hepatocytes): 0.15
- RNA-seq results: FGD1 expression (gene FGD1, hepatocytes): −0.42
- RNA-seq results: FGFR2 expression (gene FGFR2, hepatocytes): 0.36
- RNA-seq results: FIG4 expression (gene FIG4, hepatocytes): 0.29
- RNA-seq results: FIS1 expression (gene FIS1, hepatocytes): 0.01
- RNA-seq results: FTCD expression (gene FTCD, hepatocytes): −0.28
- RNA-seq results: FTH1 expression (gene FTH1, hepatocytes): −0.33
- RNA-seq results: FUCA1 expression (gene FUCA1, hepatocytes): 0.06
- RNA-seq results: FXN expression (gene FXN, hepatocytes): −0.37
- RNA-seq results: G6PC3 expression (gene G6PC3, hepatocytes): −0.21
- RNA-seq results: G6PC expression (gene G6PC, hepatocytes): −0.01
- RNA-seq results: G6PD expression (gene G6PD, hepatocytes): −0.09
- RNA-seq results: GALK1 expression (gene GALK1, hepatocytes): −0.45
- RNA-seq results: GALK2 expression (gene GALK2, hepatocytes): −0.06
- RNA-seq results: GALT expression (gene GALT, hepatocytes): 0
- RNA-seq results: GATA6 expression (gene GATA6, hepatocytes): −0.71
- RNA-seq results: GATM expression (gene GATM, hepatocytes): −0.01
- RNA-seq results: GBA expression (gene GBA, hepatocytes): 0.02
- RNA-seq results: GBE1 expression (gene GBE1, hepatocytes): −0.06
- RNA-seq results: GCH1 expression (gene GCH1, hepatocytes): −0.12
- RNA-seq results: GCKR expression (gene GCKR, hepatocytes): 0.14
- RNA-seq results: GCLC expression (gene GCLC, hepatocytes): −0.06
- RNA-seq results: GOSH expression (gene GOSH, hepatocytes): −1.23
- RNA-seq results: RRM2B (gene RRM2B, hepatocytes): −0.32
- RNA-seq results: RSAD1 (gene RSAD1, hepatocytes): 0.01
- RNA-seq results: SAMHD1 (gene SAMHD1, hepatocytes): −1.92
- RNA-seq results: SC5D (gene SC5D, hepatocytes): 0.47
- RNA-seq results: SCARB1 (gene SCARB1, hepatocytes): −0.67
- RNA-seq results: SCN9A (gene SCN9A, hepatocytes): −0.32
- RNA-seq results: SDCCAG8 (gene SDCCAG8, hepatocytes): −0.50
- RNA-seq results: SEPN1 (gene SEPN1, hepatocytes): −1.37
- RNA-seq results: SERAC1 (gene SERAC1, hepatocytes): −0.31
- RNA-seq results: SERPINA1 (gene SERPINA1, hepatocytes): 0.12
- RNA-seq results: SERPING1 (gene SERPING1, hepatocytes): 0.14
- RNA-seq results: SERPINI1 (gene SERPINI1, hepatocytes): −0.06
- RNA-seq results: SETBP1 (gene SETBP1, hepatocytes): −0.38
- RNA-seq results: SFXN4 (gene SFXN4, hepatocytes): 0.25
- RNA-seq results: SLC10A1 (gene SLC10A1, hepatocytes): −0.16
- RNA-seq results: SLC10A3 (gene SLC10A3, hepatocytes): −0.82
- RNA-seq results: SLC10A5 (gene SLC10A5, hepatocytes): −1.06
- RNA-seq results: SLC10A7 (gene SLC10A7, hepatocytes): −0.12
- RNA-seq results: SLC11A2 (gene SLC11A2, hepatocytes): −0.44
- RNA-seq results: SLC19A1 (gene SLC19A1, hepatocytes): −0.33
- RNA-seq results: SLC19A2 (gene SLC19A2, hepatocytes): −0.15
- RNA-seq results: SLC19A3 (gene SLC19A3, hepatocytes): −0.16
- RNA-seq results: SLC22A1 (gene SLC22A1, hepatocytes): 0.24
- RNA-seq results: SLC22A5 (gene SLC22A5, hepatocytes): −0.38
- RNA-seq results: SLC25A1 (gene SLC25A1, hepatocytes): −0.61
- RNA-seq results: SLC25A10 (gene SLC25A10, hepatocytes): −0.64
- RNA-seq results: SLC25A12 (gene SLC25A12, hepatocytes): −0.97
- RNA-seq results: SLC25A13 (gene SLC25A13, hepatocytes): −0.53
- RNA-seq results: SLC25A15 (gene SLC25A15, hepatocytes): −0.18
- RNA-seq results: SLC25A19 (gene SLC25A19, hepatocytes): −0.47
- RNA-seq results: SLC25A20 (gene SLC25A20, hepatocytes): −1.32
- RNA-seq results: SLC25A29 (gene SLC25A29, hepatocytes): −0.54
- RNA-seq results: SLC25A32 (gene SLC25A32, hepatocytes): −0.47

SMILES: CC(C)(CO)c1cc2cc(NC(=O)C3(c4ccc5c(c4)OC(F)(F)O5)CC3)c(F)cc2n1C[C@@H](O)CO [VX-661 (tezacaptor), tezacaptor]
- significant changes in gene expression: not observed to cause any significant changes in gene expression
- significant modulation of expression of any of the genes analyzed (RNA-seq, hepatocytes): not observed to significantly modulate expression

SMILES: Fc1ccc(C(OCCN2CCN(CCCc3ccccc3)CC2)c2ccc(F)cc2)cc1 [Vanoxerine (dihydrochloride), Vanoxerine]
- significant modulation of expression of disease genes (RNA-seq, hepatocytes): significantly (q≤0.05) modulate expression of HMOX1
- B2M expression, RNA-seq result (gene B2M, hepatocytes): −0.07
- B9D2 expression, RNA-seq result (gene B9D2, hepatocytes): 0.29
- BAAT expression, RNA-seq result (gene BAAT, hepatocytes): 0.01
- BBOX1 expression, RNA-seq result (gene BBOX1, hepatocytes): 0.01
- BBS10 expression, RNA-seq result (gene BBS10, hepatocytes): −0.41
- BCHE expression, RNA-seq result (gene BCHE, hepatocytes): −0.5
- BCKDHB expression, RNA-seq result (gene BCKDHB, hepatocytes): −0.06
- BCKDK expression, RNA-seq result (gene BCKDK, hepatocytes): 0.02
- BCO1 expression, RNA-seq result (gene BCO1, hepatocytes): 0.08
- BCR expression, RNA-seq result (gene BCR, hepatocytes): 0.04
- BLNK expression, RNA-seq result (gene BLNK, hepatocytes): 0.18
- BLOC1S3 expression, RNA-seq result (gene BLOC1S3, hepatocytes): 0.46
- BMPR1A expression, RNA-seq result (gene BMPR1A, hepatocytes): 0
- BRAF expression, RNA-seq result (gene BRAF, hepatocytes): 0.2
- BSCL2 expression, RNA-seq result (gene BSCL2, hepatocytes): −0.45
- BTD expression, RNA-seq result (gene BTD, hepatocytes): −0.16
- C4A expression, RNA-seq result (gene C4A, hepatocytes): 0.05
- C9 expression, RNA-seq result (gene C9, hepatocytes): −0.2
- C10orf10 expression, RNA-seq result (gene C10orf10, hepatocytes): 0.02
- C10orf11 expression, RNA-seq result (gene C10orf11, hepatocytes): 0.18
- C15orf41 expression, RNA-seq result (gene C15orf41, hepatocytes): 0.13
- CA2 expression, RNA-seq result (gene CA2, hepatocytes): 0.53
- CA5A expression, RNA-seq result (gene CA5A, hepatocytes): 0.24
- CA12 expression, RNA-seq result (gene CA12, hepatocytes): 0.77
- CAV1 expression, RNA-seq result (gene CAV1, hepatocytes): −0.47
- CCND1 expression, RNA-seq result (gene CCND1, hepatocytes): −0.33
- CD46 expression, RNA-seq result (gene CD46, hepatocytes): −0.14
- CD81 expression, RNA-seq result (gene CD81, hepatocytes): 0.3
- CD320 expression, RNA-seq result (gene CD320, hepatocytes): 0.17
- CDAN1 expression, RNA-seq result (gene CDAN1, hepatocytes): 0.25
- CDH1 expression, RNA-seq result (gene CDH1, hepatocytes): −0.29
- CEP19 expression, RNA-seq result (gene CEP19, hepatocytes): −0.07
- CEP83 expression, RNA-seq result (gene CEP83, hepatocytes): −0.12
- CEP164 expression, RNA-seq result (gene CEP164, hepatocytes): 0.12
- CEP290 expression, RNA-seq result (gene CEP290, hepatocytes): −0.14
- CFB expression, RNA-seq result (gene CFB, hepatocytes): 0.02
- CFHR2 expression, RNA-seq result (gene CFHR2, hepatocytes): −0.46
- CHRM3 expression, RNA-seq result (gene CHRM3, hepatocytes): −0.06
- CIDEC expression, RNA-seq result (gene CIDEC, hepatocytes): 0.1
- CLDN1 expression, RNA-seq result (gene CLDN1, hepatocytes): −0.37
- COG1 expression, RNA-seq result (gene COG1, hepatocytes): 0.06

SMILES: Fc1ccc(C(OCCN2CCN(CCCc3ccccc3)CC2)c2ccc(F)cc2)cc1 [Vanoxerine]
- Number (#) of genes having significantly changed expression (RNA-seq, Phase III failure compounds, hepatocytes, significance: FPKM≥0.5, log 2(fold-change)≥1, q-value≥0.05 (so in the source)): 17

SMILES: COC[C@@H](c1ccc(C(F)(F)F)cc1)N1CCN(C2(C)CCN(C(=O)c3c(C)ncnc3C)CC2)C[C@@H]1C [Vicriviroc (maleate), Vicriviroc]
- significant changes in gene expression: not observed to cause any significant changes in gene expression
- significant modulation of expression of any of the genes analyzed (RNA-seq, hepatocytes): not observed to significantly modulate expression
